Test results taken from patent US20260285850A1, “SUBSTITUTED OXAZOLIDINONES AND IMIDAZOLINONES AS HERBICIDES” (FMC CORPORATION, priority 2023, published 2026).

How the values were obtained:
Format in all cases: in vivo
kochia (Bassia scoparia) [1] = test: Test A postemergence application, visual injury rating 0-100; conditions: Postemergence
Description: (§1) Seeds of plant species selected from barnyardgrass (Echinochloa crus-galli), blackgrass (Alopecurus myosuroides), corn (Zea mays), foxtail, giant (giant foxtail, Setaria faberi), green foxtail (Setaria viridis), goosegrass (Eleusine indica), kochia (Bassia scoparia), oat, wild (wild oat, Avena fatua), palmer (palmer amaranth, palmer pigweed, Amaranthus palmeri), ragweed (common ragweed, Ambrosia artemisiifolia), ryegrass, Italian (italian ryegrass, Lolium multiflorum), soybean (Glycine max) and wheat (Triticum aestivum) were planted into a blend of loam soil and sand and treated preemergence with a directed soil spray using test chemicals formulated in a non-phytotoxic solvent mixture which included a surfactant.
(§2) At the same time, plants selected from these crops and weed species and also galium (catchweed bedstraw, Galium aparine) and horseweed (Erigeron canadensis) were planted in pots containing the same blend of loam soil and sand and treated with postemergence applications of test chemicals formulated in the same manner. Plants ranged in height from 2 to 10 cm and were in the one- to two-leaf stage for the postemergence treatment. Treated plants and untreated controls were maintained in a greenhouse for 10 days, after which time all treated plants were compared to untreated controls and visually evaluated for injury. Plant response ratings, summarized in Table A, are based on a 0 to 100 scale where 0 is no effect and 100 is complete control. A dash (-) response means no test result.

[2] = tested on: galium (catchweed bedstraw, Galium aparine); test: as above; conditions: Postemergence
Description: as §1, §2

[3] = tested on: barnyardgrass (Echinochloa crus-galli); test: as above; conditions: Postemergence
Description: as §1, §2

[4] = tested on: ryegrass, Italian (italian ryegrass, Lolium multiflorum); test: as above; conditions: Postemergence
Description: as §1, §2

[5] = tested on: ragweed (common ragweed, Ambrosia artemisiifolia); test: as above; conditions: Postemergence
Description: as §1, §2

corn (Zea mays) [6] = test: as above; conditions: Postemergence
Description: as §1, §2

[7] = tested on: horseweed (Erigeron canadensis); test: as above; conditions: Postemergence
Description: as §1, §2

[8] = tested on: blackgrass (Alopecurus myosuroides); test: as above; conditions: Postemergence
Description: as §1, §2

[9] = tested on: wheat (Triticum aestivum); test: as above; conditions: Postemergence
Description: as §1, §2

soybean (Glycine max) [10] = test: as above; conditions: Postemergence
Description: as §1, §2

[11] = tested on: palmer (palmer amaranth, palmer pigweed, Amaranthus palmeri); test: as above; conditions: Postemergence
Description: as §1, §2

[12] = tested on: oat, wild (wild oat, Avena fatua); test: as above; conditions: Postemergence
Description: as §1, §2

kochia (Bassia scoparia) [13] = test: Test A preemergence soil spray, visual injury rating 0-100; conditions: 10 days
Description: as §1, §2

[14] = tested on: barnyardgrass (Echinochloa crus-galli); test: as above; conditions: 10 days
Description: as §1, §2

[15] = tested on: ryegrass, Italian (italian ryegrass, Lolium multiflorum); test: as above; conditions: 10 days
Description: as §1, §2

[16] = tested on: ragweed (common ragweed, Ambrosia artemisiifolia); test: as above; conditions: 10 days
Description: as §1, §2

corn (Zea mays) [17] = test: as above; conditions: 10 days
Description: as §1, §2

[18] = tested on: blackgrass (Alopecurus myosuroides); test: as above; conditions: 10 days
Description: as §1, §2

[19] = tested on: wheat (Triticum aestivum); test: as above; conditions: 10 days
Description: as §1, §2

soybean (Glycine max) [20] = test: as above; conditions: 10 days
Description: as §1, §2

[21] = tested on: palmer (palmer amaranth, palmer pigweed, Amaranthus palmeri); test: as above; conditions: 10 days
Description: as §1, §2

[22] = tested on: oat, wild (wild oat, Avena fatua); test: as above; conditions: 10 days
Description: as §1, §2

[23] = 31 g ai/ha, greenhouse 10 days, 0 no effect, 100 complete control
[24] = 125 g ai/ha, 10 days, 0 is no effect, 100 is complete control
[25] = 125 g ai/ha, 0 = no effect, 100 = complete control

## CCS(=O)(=O)NC(=O)C1C=CC(NC(=O)C2(C)CN(c3cc(F)cc(F)c3)C(=O)O2)C1 (centres unmarked) [Compound 81]
Kochia (Bassia scoparia) [1]; [23]
  Kochia plant response rating (0 to 100 scale): 80
Kochia (Bassia scoparia) [1]; [24]
  Kochia plant response rating (0 to 100 scale): 90
[2]; [23]
  Galium plant response rating (0 to 100 scale): 80
[2]; [24]
  Galium plant response rating (0 to 100 scale): 80
[3]; [23]
  Barnyardgrass plant response rating (0 to 100 scale): 90
[3]; [24]
  Barnyardgrass plant response rating (0 to 100 scale): 90
[4]; [23]
  Ryegrass, Italian plant response rating (0 to 100 scale): 50
[4]; [24]
  Ryegrass, Italian plant response rating (0 to 100 scale): 70
[5]; [23]
  Ragweed plant response rating (0 to 100 scale): 20
[5]; [24]
  Ragweed plant response rating (0 to 100 scale): 50
Corn (Zea mays) [6]; [23]
  Corn plant response rating (0 to 100 scale): 60
Corn (Zea mays) [6]; [24]
  Corn plant response rating (0 to 100 scale): 100
[7]; [23]
  Horseweed plant response rating (0 to 100 scale): 30
[7]; [24]
  Horseweed plant response rating (0 to 100 scale): 70
[8]; [23]
  Blackgrass plant response rating (0 to 100 scale): 0
[8]; [24]
  Blackgrass plant response rating (0 to 100 scale): 50
[9]; [23]
  Wheat plant response rating (0 to 100 scale): 90
[9]; [24]
  Wheat plant response rating (0 to 100 scale): 90
Soybean (Glycine max) [10]; [23]
  Soybean plant response rating (0 to 100 scale): 30
Soybean (Glycine max) [10]; [24]
  Soybean plant response rating (0 to 100 scale): 50
[11]; [23]
  Amaranth, Palmer / Pigweed, Palmer plant response rating (0 to 100 scale): 70
[11]; [24]
  Amaranth, Palmer / Pigweed, Palmer plant response rating (0 to 100 scale): 70
[12]; [23]
  Oat, Wild plant response rating (0 to 100 scale): 80
[12]; [24]
  Oat, Wild plant response rating (0 to 100 scale): 90
Kochia (Bassia scoparia) [13]; 31 g ai/ha, 0 to 100 scale
  Kochia plant response rating: 70
Kochia (Bassia scoparia) [13]; [25]
  Kochia plant response rating (0 to 100 scale): 90
[14]; 31 g ai/ha, 0 to 100 scale
  Barnyardgrass plant response rating: 90
[14]; [25]
  Barnyardgrass plant response rating (0 to 100 scale): 90
[15]; 31 g ai/ha, 0 to 100 scale
  Ryegrass, Italian plant response rating: 60
[15]; [25]
  Ryegrass, Italian plant response rating (0 to 100 scale): 80
[16]; 31 g ai/ha, 0 to 100 scale
  Ragweed plant response rating: 20
[16]; [25]
  Ragweed plant response rating (0 to 100 scale): 10
Corn (Zea mays) [17]; 31 g ai/ha, 0 to 100 scale
  Corn plant response rating: 0
Corn (Zea mays) [17]; [25]
  Corn plant response rating (0 to 100 scale): 80
[18]; 31 g ai/ha, 0 to 100 scale
  Blackgrass plant response rating: 30
[18]; [25]
  Blackgrass plant response rating (0 to 100 scale): 70
[19]; 31 g ai/ha, 0 to 100 scale
  Wheat plant response rating: 40
[19]; [25]
  Wheat plant response rating (0 to 100 scale): 90
Soybean (Glycine max) [20]; 31 g ai/ha, 0 to 100 scale
  Soybean plant response rating: 10
Soybean (Glycine max) [20]; [25]
  Soybean plant response rating (0 to 100 scale): 70
[21]; 31 g ai/ha, 0 to 100 scale
  Amaranth, Palmer (Pigweed, Palmer) plant response rating: 50
[21]; [25]
  Amaranth, Palmer plant response rating (0 to 100 scale): 90
[22]; 31 g ai/ha, 0 to 100 scale
  Oat, Wild plant response rating: 40
[22]; [25]
  Oat, Wild plant response rating (0 to 100 scale): 70
